Measurements from ChEMBL document CHEMBL3885881, “DrugMatrix”.

Species on record: Rattus norvegicus
Assay: DrugMatrix - Regimen: Daily Repeat
Format: toxicity, organism-based, Sprague-Dawley
Design: regimen Daily Repeat, gender Male, age 6-8 weeks
Details: in vivo, po, 570 mg/kg, route oral GAVAGE, dose level High, vehicle .5 % CMC; for ABSOLUTE BASOPHIL / ABSOLUTE EOSINOPHIL / ABSOLUTE LYMPHOCYTE / ABSOLUTE MONOCYTE / ABSOLUTE SEGMENTED NEUTROPHIL / BASOPHIL / EOSINOPHIL / ERYTHROCYTE COUNT / HEMATOCRIT / HEMOGLOBIN / LEUKOCYTE COUNT / LYMPHOCYTE / MEAN CORPUSCULAR HEMOGLOBIN / MEAN CORPUSCULAR HEMOGLOBIN CONCENTRATION / MEAN CORPUSCULAR VOLUME / MONOCYTE / NEUTROPHIL / NUCLEATED RED BLOOD CELLS / PLATELET COUNT: tissue Blood; for ALANINE AMINOTRANSFERASE / ALBUMIN / ALKALINE PHOSPHATASE / ASPARTATE AMINOTRANSFERASE / BLOOD UREA NITROGEN / CARBON DIOXIDE / CHLORIDE / CHOLESTEROL / CREATINE PHOSPHOKINASE / CREATININE / GLUCOSE / LACTATE DEHYDROGENASE / LIPASE / PHOSPHORUS / POTASSIUM / SODIUM / TOTAL BILIRUBIN / TOTAL PROTEIN / URIC ACID: tissue Plasma

## O=C(O)COc1ccc(C(=O)c2cccs2)c(Cl)c1Cl
72 h, time 3 day
  ABSOLUTE BASOPHIL: 0 CELLS/uL
  ABSOLUTE EOSINOPHIL: 0 CELLS/uL
  ABSOLUTE LYMPHOCYTE: 14484.67 CELLS/uL
  ABSOLUTE MONOCYTE: 271.67 CELLS/uL
  ABSOLUTE SEGMENTED NEUTROPHIL: 1143.67 CELLS/uL
  BASOPHIL: 0%
  EOSINOPHIL: 0%
  ERYTHROCYTE COUNT: 5.25 x10E6/uL
  HEMATOCRIT: 32.4%
  HEMOGLOBIN: 12.33 G/DL
  LEUKOCYTE COUNT: 15.9 x10E3/uL
  LYMPHOCYTE: 91.33%
  MEAN CORPUSCULAR HEMOGLOBIN: 23.47 pg
  MEAN CORPUSCULAR HEMOGLOBIN CONCENTRATION: 38.03 G/DL
  MEAN CORPUSCULAR VOLUME: 61.6 fL
  MONOCYTE: 1.67%
  NEUTROPHIL: 7%
  NUCLEATED RED BLOOD CELLS: 0 /100WBC
  PLATELET COUNT: 1320.33 x10E3/uL
  ALANINE AMINOTRANSFERASE: 61.67 u/L
  ALBUMIN: 4.03 G/DL
  ALKALINE PHOSPHATASE: 478 u/L
  ASPARTATE AMINOTRANSFERASE: 93 u/L
  BLOOD UREA NITROGEN: 14.67 mg/dL
  CARBON DIOXIDE: 35.67 mmol/L
  CHLORIDE: 97 MEQ/L
  CHOLESTEROL: 89.67 mg/dL
  CREATINE PHOSPHOKINASE: 605.33 u/L
  CREATININE: 0.23 mg/dL
  GLUCOSE: 141.33 mg/dL
  LACTATE DEHYDROGENASE: 128 u/L
  LIPASE: 9 u/L
  PHOSPHORUS: 10.17 mg/dL
  POTASSIUM: 5.26 MEQ/L
  SODIUM: 142.77 MEQ/L
  TOTAL BILIRUBIN: 0.2 mg/dL
  TOTAL PROTEIN: 6.27 G/DL
  URIC ACID: 0.47 mg/dL
120 h, time 5 day
  ABSOLUTE BASOPHIL: 0 CELLS/uL
  ABSOLUTE EOSINOPHIL: 0 CELLS/uL
  ABSOLUTE LYMPHOCYTE: 19963.33 CELLS/uL
  ABSOLUTE MONOCYTE: 319.33 CELLS/uL
  ABSOLUTE SEGMENTED NEUTROPHIL: 2417.33 CELLS/uL
  BASOPHIL: 0%
  EOSINOPHIL: 0%
  ERYTHROCYTE COUNT: 5.25 x10E6/uL
  HEMATOCRIT: 32.67%
  HEMOGLOBIN: 12.47 G/DL
  LEUKOCYTE COUNT: 22.7 x10E3/uL
  LYMPHOCYTE: 88.33%
  MEAN CORPUSCULAR HEMOGLOBIN: 23.73 pg
  MEAN CORPUSCULAR HEMOGLOBIN CONCENTRATION: 38.17 G/DL
  MEAN CORPUSCULAR VOLUME: 62.33 fL
  MONOCYTE: 1.33%
  NEUTROPHIL: 10.33%
  NUCLEATED RED BLOOD CELLS: 0 /100WBC
  PLATELET COUNT: 1428 x10E3/uL
  ALANINE AMINOTRANSFERASE: 48 u/L
  ALBUMIN: 4.13 G/DL
  ALKALINE PHOSPHATASE: 359.33 u/L
  ASPARTATE AMINOTRANSFERASE: 74 u/L
  BLOOD UREA NITROGEN: 15.67 mg/dL
  CARBON DIOXIDE: 34.33 mmol/L
  CHLORIDE: 100 MEQ/L
  CHOLESTEROL: 70.33 mg/dL
  CREATINE PHOSPHOKINASE: 268.67 u/L
  CREATININE: 0.29 mg/dL
  GLUCOSE: 144 mg/dL
  LACTATE DEHYDROGENASE: 153.33 u/L
  LIPASE: 6.67 u/L
  PHOSPHORUS: 11 mg/dL
  POTASSIUM: 6.13 MEQ/L
  SODIUM: 144.77 MEQ/L
  TOTAL BILIRUBIN: 0.2 mg/dL
  TOTAL PROTEIN: 6.1 G/DL
  URIC ACID: 1.3 mg/dL
